Test results taken from ChEMBL document CHEMBL4364356, “Deuteration of BTZ043 Extends the Lifetime of Meisenheimer Intermediates to the Antituberculosis Nitroso Oxidation State” (ACS Med Chem Lett, 2019).
The source made the active and inactive calls. The calls are words filed in the database; no cut-off is given here.

How the values were obtained:
[1] = Prodrug conversion in THF/MeOH solution assessed as first order rate constant for protonated/deuterated metabolite (6HD) formation at 0.01 mmol treated with NaBH4 by UV-visible spectroscopic analysis; format: ADME
[2] = Prodrug conversion in THF/MeOH solution assessed as first order rate constant for deuterated metabolite (6D2) formation at 0.01 mmol treated with NaBD4 by UV-visible spectroscopic analysis; format: ADME
[3] = target: T1, Decaprenylphosphoryl-beta-D-ribose oxidase (Mycobacterium tuberculosis (strain ATCC 25618 / H37Rv)) (UniProt P9WJF1); assay: Inhibition of DprE1 in Mycobacterium tuberculosis H37Rv assessed as reduction in bacterial growth at 0.02 to 0.03 uM measured in GAS medium
T1 sequence (whole entry): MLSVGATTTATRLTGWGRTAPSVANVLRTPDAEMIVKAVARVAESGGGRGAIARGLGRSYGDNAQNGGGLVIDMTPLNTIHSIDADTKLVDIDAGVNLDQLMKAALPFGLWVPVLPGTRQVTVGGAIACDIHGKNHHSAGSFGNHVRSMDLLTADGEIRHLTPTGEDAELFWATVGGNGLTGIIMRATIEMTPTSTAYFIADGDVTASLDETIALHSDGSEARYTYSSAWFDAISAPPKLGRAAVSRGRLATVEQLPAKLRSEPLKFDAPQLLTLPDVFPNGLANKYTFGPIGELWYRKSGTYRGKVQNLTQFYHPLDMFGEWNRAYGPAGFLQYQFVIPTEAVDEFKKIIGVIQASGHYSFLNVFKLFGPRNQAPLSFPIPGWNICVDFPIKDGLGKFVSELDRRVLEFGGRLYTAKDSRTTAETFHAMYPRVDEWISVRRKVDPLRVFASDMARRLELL

[4] = Drug recovery in THF/MeOH solution measured after 3 days by 1H-NMR analysis; settings: tested as the 2H-labelled form
[5] = Prodrug conversion in THF/MeOH solution assessed as first order rate constant for protonated metabolite (6H2) formation at 0.01 mmol treated with NaBH4 by UV-visible spectroscopic analysis; format: ADME
[6] = target: T1, Decaprenylphosphoryl-beta-D-ribose oxidase (Mycobacterium tuberculosis (strain ATCC 25618 / H37Rv)); assay: Inhibition of DprE1 in Mycobacterium tuberculosis H37Rv assessed as reduction in bacterial growth at <0.004 uM measured in MABA media

SMILES | K [1] [×10⁻⁵ /s] | K [2] [×10⁻⁵ /s] | inhibition [3] | inhibition ([3]; tested as the 2H-labelled form) | Drug recovery [4] [%] | K [5] [×10⁻⁵ /s] | inhibition [6] | inhibition ([6]; tested as the 2H-labelled form)
[2H]c1c(C(F)(F)F)c([2H])c2c(=O)nc(N3CCC4(CC3)OC[C@H](C)O4)sc2c1[N+](=O)[O-] | 2.8 | 1.2 | – | – | – | – | – | –
C[C@H]1COC2(CCN(c3nc(=O)c4cc(C(F)(F)F)cc([N+](=O)[O-])c4s3)CC2)O1 [BTZ-043] | – | – | Active | Active | 95 | 5.6 | Active | Active
